# Test results as given in patent US8598183B2, “Solid state forms of a potent HCV inhibitor” (Boehringer Ingelheim International GmbH, priority 2010, dated 2013).
# Marks after values point to notes of the source that are not given here.
# Columns and labels:
# [1] = Powder dissolution / solubility of Compound (1) sodium salt in water at different concentrations; assay type: physicochemical; settings: for % dissolved / CMC value: water; for CMC value: estimated
# Description: Based on thermodynamic solubility of Compound (1), solubility of 0.005-0.01 mg/ml is estimated for Compound (1) sodium salt. […] This unique behavior of high solubility at high drug concentrations is most likely attributable to tendency of the drug substance to self-micellize. A CMC value of 41.4 mM (corresponding to 28 mg/mL) is estimated.
# [2] = Water content at variable humidity (adsorption curve of VTI measurement); assay type: physicochemical; settings: 25° C.
# Description: Bruker D-8 Advance X-Ray Powder Diffractometer in parallel beam mode with a scintillation detector and using a variable temperature/humidity stage. Humidity adjusted and equilibrated at 25° C., scans from 2-35° 2-theta, 0.05° 2-theta step size, 4 seconds/step At higher humidity (50% RH, and 85% RH) the diffraction lines in the resulting patterns are shifted consistent with lattice expansion to accommodate more water in the lattice. The amount of water at 50% RH based on the adsorption curve of the VTI measurement is 1.7%, and the amount of water at 85% RH is 4.5%. When the sample is exposed to ambient conditions after high humidity the resulting diffraction pattern is again consistent with that of the starting material.
# [3] = Powder dissolution testing in pH 6.8 buffer, USP Type II Paddle apparatus; assay type: physicochemical; settings: 60 minutes, listed as crystalline Compound (1) sodium salt
# [4] = Storage stability of concentrated supersaturated aqueous solutions; assay type: physicochemical; settings: 10 month storage at room temperature
# Description: This unique behavior of high solubility at high drug concentrations is most likely attributable to tendency of the drug substance to self-micellize. A CMC value of 41.4 mM (corresponding to 28 mg/mL) is estimated.
# HCV infection = assay: Human clinical trials in HCV-infected patients; assay type: in vivo
# [5] = Powder dissolution of triturated mixtures in capsules in 500 mL pH 6.8 buffer; assay type: physicochemical; settings: capsule
# Source text: One class of solubilizer excipients, basifiers, act by increasing the microenvironment pH and thereby increasing the local solubility of the drug (for a drug containing an acid moiety). Another class of solubilizer excipients, surfactants, also act by increasing the local solubility of the drug. […] For example, an enhancement in dissolution was obtained when surfactants, for example, sodium lauryl sulfate or Vitamin E TPGS, were used in combination with basifiers, for example, L-arginine, meglumine or L-lysine. […] For example, only 1% drug release was obtained when Compound (1) sodium salt crystalline was present. The % drug release was 54% at 60 minutes in the presence of 100 mg Arginine alone and 59% in the presence of Sodium lauryl sulfate alone (Table 2). However, in presence of 100 mg of Arginine along with 100 mg of Sodium lauryl sulfate, the % drug release increased to 93% at 60 minutes (Table 3) indicating enhancement in dissolution when both surfactant and basifier were used in combination.
smiles,measurement,setting,value
Cn1c(C2(NC(=O)c3ccc4c(C5CCCC5)c(-c5ncc(Br)cn5)n(C)c4c3)CCC2)nc2ccc(/C=C/C(=O)[O-])cc21.[Na+] [Compound (1) sodium salt],dissolution in water,[1]; concentrations exceeding the CMC value,dissolves completely
same,% dissolved,[1]; conc 0.1 mg/ml,13.4%
same,% dissolved,[1]; conc 0.3 mg/ml,15.0%
same,% dissolved,[1]; conc 1.0 mg/ml,15.4%
same,% dissolved,[1]; conc 3.0 mg/ml,46.6%
same,% dissolved,[1]; conc 10.0 mg/ml,90.0%
same,% dissolved,[1]; conc 30.0 mg/ml,100.0%
same,% dissolved,[1]; conc 100.0 mg/ml,100.0%
same,% dissolved,[1]; conc 200.0 mg/ml,100.0%
same,% dissolved,[1]; concentrations ≦1 mg/mL,15%
same,CMC value,[1],41.4 mM
same,CMC value,[1]; corresponding to the mM value,28 mg/mL
same,amount of water,[2]; 50% RH,1.7%
same,amount of water,[2]; 85% RH,4.5%
same,% dissolved (kinetic dissolution),[3],< 5%
same,precipitation of highly concentrated supersaturated solutions,[4],no precipitation observed
same,effectiveness in treating HCV-infected patients,HCV infection,demonstrated effectiveness
same,"% Release, average (range)","[5]; 200 mg drug + Arginine 100 mg, 90 (infinity), n = 4",54 (40-58) %
same,"% Release, average (range)","[5]; 200 mg drug + Arginine 100 mg, 15 min, n = 4",43 (27-53)* %
same,"% Release, average (range)","[5]; 200 mg drug + Arginine 100 mg, 30 min, n = 4",54 (39-62) %
same,"% Release, average (range)","[5]; 200 mg drug + Arginine 100 mg, 60 min, n = 4, listed as Compound (1) Na Salt",54 (38-60) %
same,"% Release, average (range)","[5]; 200 mg drug + Arginine 100 mg, 60 min, n = 4, listed as Compound (1) sodium salt crystalline",54%
same,"% Release, Average of n = 2 (range)","[5]; 200 mg drug + Arginine + SDS (40 mg + 20 mg), 15 min",74 (70-78) %
same,"% Release, Average of n = 2 (range)","[5]; 200 mg drug + Arginine + SDS (40 mg + 20 mg), 30 min",77 (74-80) %
same,"% Release, Average of n = 2 (range)","[5]; 200 mg drug + Arginine + SDS (40 mg + 20 mg), 60 min",76 (74-78) %
same,"% Release, Average of n = 2 (range)","[5]; 200 mg drug + Arginine + SDS (40 mg + 20 mg), 90 min",72 (70-74) %
same,"% Release, Average of n = 2 (range)","[5]; 200 mg drug + Arginine + SDS (100 mg + 100 mg), 15 min",92 (91-93) %
same,"% Release, Average of n = 2 (range)","[5]; 200 mg drug + Arginine + SDS (100 mg + 100 mg), 30 min",93 (93-94) %
same,"% Release, Average of n = 2 (range)","[5]; 200 mg drug + Arginine + SDS (100 mg + 100 mg), 60 min, listed as Compound (1) Na Salt",93 (93-93) %
same,"% Release, Average of n = 2 (range)","[5]; 200 mg drug + Arginine + SDS (100 mg + 100 mg), 60 min, listed as Compound (1) sodium salt crystalline",93%
same,"% Release, Average of n = 2 (range)","[5]; 200 mg drug + Arginine + SDS (100 mg + 100 mg), 90 min",91 (89-92) %
same,"% Release, Average of n = 2 (range)","[5]; 200 mg drug + Arginine + VitE TPGS (40 mg + 20 mg), 15 min",62 (61-63) %
same,"% Release, Average of n = 2 (range)","[5]; 200 mg drug + Arginine + VitE TPGS (40 mg + 20 mg), 30 min",64 (62-67) %
same,"% Release, Average of n = 2 (range)","[5]; 200 mg drug + Arginine + VitE TPGS (40 mg + 20 mg), 60 min",65 (63-68) %
same,"% Release, Average of n = 2 (range)","[5]; 200 mg drug + Arginine + VitE TPGS (40 mg + 20 mg), 90 min",63 (60-66) %
same,"% Release, Average of n = 2 (range)","[5]; 200 mg drug + Arginine + VitE TPGS (100 mg + 100 mg), 15 min",76 (74-78) %
same,"% Release, Average of n = 2 (range)","[5]; 200 mg drug + Arginine + VitE TPGS (100 mg + 100 mg), 30 min",77 (76-78) %
same,"% Release, Average of n = 2 (range)","[5]; 200 mg drug + Arginine + VitE TPGS (100 mg + 100 mg), 60 min",78 (78-78) %
same,"% Release, Average of n = 2 (range)","[5]; 200 mg drug + Arginine + VitE TPGS (100 mg + 100 mg), 90 min",76 (75-76) %
same,"% Release, average (range)","[5]; 200 mg drug + Lysine 100 mg, 90 (infinity), n = 4",44 (33-46) %
same,"% Release, average (range)","[5]; 200 mg drug + Lysine 100 mg, 15 min, n = 4",18 (9-27) %
same,"% Release, average (range)","[5]; 200 mg drug + Lysine 100 mg, 60 min, n = 4",47 (33-54) %
same,"% Release, Average of n = 2 (range)","[5]; 200 mg drug + Lysine + SDS (40 mg + 20 mg), 15 min",75 (74-77) %
same,"% Release, Average of n = 2 (range)","[5]; 200 mg drug + Lysine + SDS (40 mg + 20 mg), 30 min",77 (76-78) %
same,"% Release, Average of n = 2 (range)","[5]; 200 mg drug + Lysine + SDS (40 mg + 20 mg), 60 min",75 (74-75) %
same,"% Release, Average of n = 2 (range)","[5]; 200 mg drug + Lysine + SDS (40 mg + 20 mg), 90 min",72 (70-74) %
same,"% Release, Average of n = 2 (range)","[5]; 200 mg drug + Lysine + SDS (100 mg + 100 mg), 15 min",40 (37-42) %
same,"% Release, Average of n = 2 (range)","[5]; 200 mg drug + Lysine + SDS (100 mg + 100 mg), 30 min",74 (67-82) %
same,"% Release, Average of n = 2 (range)","[5]; 200 mg drug + Lysine + SDS (100 mg + 100 mg), 60 min",85 (85-86) %
